Experimental findings from ChEMBL document CHEMBL5724914, “Linking interpersonal differences in gut microbiota composition and drug biotransformation activity” (2024) are described below.

For data set [1] the following is noted: human gut metagenome, 24 h, 2 µM.
Data set [2] is described as follows: The drug is tested on Z-003 corresponding to pig gut metagenome with ENA study accession number: PRJEB37062 and ENA sample accession number: ERS12561803 for biotransformation under anaerobic condition. The drug concentrations were measured over 9 timepoints collected between 0 and 24 hours of incubation by liquid-chromatography-coupled mass spectrometry (LC–MS). Conditions: 2 µM.

Data set [3] is described as follows: The drug is tested on Z-021 corresponding to metagenome with ENA study accession number: PRJEB37062 and ENA sample accession number: ERS12561820 for biotransformation under anaerobic condition. The drug concentrations were measured over 9 timepoints collected between 0 and 24 hours of incubation by liquid-chromatography-coupled mass spectrometry (LC–MS). As to conditions: 2 µM.

Data set [4] can be described thus: The drug is tested on WLS-170 corresponding to human gut metagenome with ENA study accession number: PRJEB37062 and ENA sample accession number: ERS12561762 for biotransformation under anaerobic condition. The drug concentrations were measured over 9 timepoints collected between 0 and 24 hours of incubation by liquid-chromatography-coupled mass spectrometry (LC–MS). As to conditions: 2 µM.

For data set [5] the following is noted: human gut metagenome, 24 h, 2 µM. This is another data set of the same source.
For data set [6] the following is noted: human gut metagenome, 24 h, 2 µM. This is another data set of the same source.
The conditions of data set [7]: human gut metagenome, 24 h, 2 µM. This is another data set of the same source.
Data set [8] can be described thus: The drug is tested on Z-029 corresponding to rat gut metagenome with ENA study accession number: PRJEB37062 and ENA sample accession number: ERS12561828 for biotransformation under anaerobic condition. The drug concentrations were measured over 9 timepoints collected between 0 and 24 hours of incubation by liquid-chromatography-coupled mass spectrometry (LC–MS). Conditions: 2 µM.

Data set [9] can be described thus: The drug is tested on WLS-027 corresponding to human gut metagenome with ENA study accession number: PRJEB37062 and ENA sample accession number: ERS12561744 for biotransformation under anaerobic condition. The drug concentrations were measured over 9 timepoints collected between 0 and 24 hours of incubation by liquid-chromatography-coupled mass spectrometry (LC–MS). As to conditions: 2 µM.
Also: call rule not given here.

Turning to `C#C[C@]1(OC(C)=O)CC[C@H]2[C@@H]3CCC4=C[C@@H](OC(C)=O)CC[C@@H]4[C@H]3CC[C@@]21C` [ETHYNODIOL DIACETATE], the “Bacterial Biotransformation” value in data set [1], in data set [2], in data set [3], in data set [4], in data set [5] and in [6] was “Compound metabolized” in each case. The “Bacterial Biotransformation” value is “Compound metabolized” in [7] and “Compound NOT metabolized” in data set [8].

`C=CC[C@@H]1/C=C(\C)C[C@H](C)C[C@H](OC)[C@H]2O[C@@](O)(C(=O)C(=O)N3CCCC[C@H]3C(=O)O[C@H](/C(C)=C/[C@@H]3CC[C@@H](O)[C@H](OC)C3)[C@H](C)[C@@H](O)CC1=O)[C@H](C)C[C@@H]2OC.O` [TACROLIMUS]: the “Bacterial Biotransformation” value in data set [1] was “Compound metabolized”; in [2] it was “Compound metabolized”; in data set [3] it was “Compound NOT metabolized”; in [4], “Compound metabolized”; in data set [5] it was “Compound metabolized”; in [6], “Compound metabolized”. Besides, the “Bacterial Biotransformation” value in data set [7] is reported as “Compound metabolized”; in data set [8], “Compound NOT metabolized”; in [9] it was “Compound metabolized”.

`CC(=O)OCC(=O)[C@@]1(OC(C)=O)[C@@H](C)C[C@H]2[C@@H]3C[C@H](F)C4=CC(=O)C=C[C@]4(C)[C@@]3(F)[C@@H](O)C[C@@]21C` [DIFLORASONE DIACETATE]: the “Bacterial Biotransformation” value is on record as “Compound metabolized” in [1]; “Compound NOT metabolized” in data set [2]; “Compound metabolized” in [3]; “Compound metabolized” in data set [4]; “Compound metabolized” in [5]; “Compound metabolized” in data set [6]. In addition, the “Bacterial Biotransformation” value is “Compound metabolized” in [7], “Compound NOT metabolized” in [8] and “Compound metabolized” in data set [9].

For the compound `O=C1N=C([O-])NC1(c1ccccc1)c1ccccc1.[Na+]` [PHENYTOIN SODIUM], the “Bacterial Biotransformation” value in data set [1] is given as “Compound NOT metabolized”; in data set [2] it was “Compound NOT metabolized”; in [4] it was “Compound metabolized”; in data set [5], “Compound metabolized”; in data set [6], “Compound metabolized”; in [7], “Compound metabolized”. Besides, in [9], the “Bacterial Biotransformation” value is “Compound metabolized”.

As to `CN1CCC(OC(c2ccccc2)c2ccccc2)CC1`, the “Bacterial Biotransformation” value is on record as “Compound NOT metabolized” in [1]; “Compound NOT metabolized” in [2]; “Compound metabolized” in data set [3]; “Compound metabolized” in data set [4]; “Compound metabolized” in data set [5]; “Compound metabolized” in data set [6]. Also, the “Bacterial Biotransformation” value in [7], in [8] and in data set [9] was “Compound NOT metabolized” each time.

Consider `CN1CCC(=C2c3ccccc3CC(=O)c3sccc32)CC1.O=C(O)/C=C/C(=O)O` [KETOTIFEN FUMARATE], for which the “Bacterial Biotransformation” value in data set [1] was “Compound NOT metabolized”; in data set [2] it was “Compound NOT metabolized”; in data set [3], “Compound NOT metabolized”; in data set [4], “Compound metabolized”; in data set [5], “Compound NOT metabolized”; in data set [6], “Compound metabolized”. For the same compound, the figures for the “Bacterial Biotransformation” value in [7], in data set [8] and in [9] were “Compound metabolized”, “Compound NOT metabolized” and “Compound NOT metabolized”, respectively.

On to `CC(=O)SCC(Cc1ccccc1)C(=O)NCC(=O)OCc1ccccc1` (configuration not stated) [RACECADOTRIL], for which the “Bacterial Biotransformation” value in [2], in [3] and in data set [8] was “Compound metabolized” in each case.

Consider `CN1[C@@H]2CC[C@H]1C[C@@H](OC(=O)c1c[nH]c3ccccc13)C2` [TROPISETRON], for which the “Bacterial Biotransformation” value in [1], in [2], in [3], in [4], in data set [5] and in data set [6] was “Compound NOT metabolized” throughout. Moreover, the “Bacterial Biotransformation” value in [7], in data set [8] and in [9] was “Compound NOT metabolized” in each case.

For the compound `CC(C)c1nc(N(C)S(C)(=O)=O)nc(-c2ccc(F)cc2)c1/C=C/[C@@H](O)C[C@@H](O)CC(=O)[O-].CC(C)c1nc(N(C)S(C)(=O)=O)nc(-c2ccc(F)cc2)c1/C=C/[C@@H](O)C[C@@H](O)CC(=O)[O-].[Ca+2]` [ROSUVASTATIN CALCIUM], the “Bacterial Biotransformation” value in [1] is listed as “Compound NOT metabolized”; in data set [2], “Compound NOT metabolized”; in [3] it was “Compound NOT metabolized”; in data set [4] it was “Compound metabolized”; in [5], “Compound NOT metabolized”; in [6], “Compound metabolized”. In addition, the figures for the “Bacterial Biotransformation” value in [7], in data set [8] and in data set [9] were “Compound metabolized”, “Compound NOT metabolized” and “Compound metabolized”, respectively.

Take `C[C@@H](c1ncncc1F)[C@](O)(Cn1cncn1)c1ccc(F)cc1F` [VORICONAZOLE]: the “Bacterial Biotransformation” value is listed as “Compound metabolized” in data set [1]; “Compound metabolized” in data set [2]; “Compound NOT metabolized” in data set [3]; “Compound metabolized” in data set [4]; “Compound metabolized” in data set [5]; “Compound metabolized” in data set [6]. Further, the “Bacterial Biotransformation” value in data set [7], in data set [8] and in data set [9] was “Compound metabolized” throughout.

For `O=C1CCc2ccc(OCCCCN3CCN(c4cccc(Cl)c4Cl)CC3)cc2N1` [ARIPIPRAZOLE], the “Bacterial Biotransformation” value in data set [2] is “Compound metabolized”; in data set [3], “Compound metabolized”; in data set [8], “Compound NOT metabolized”.

Consider `CC(=O)Oc1ccc(C(c2ccc(OC(C)=O)cc2)c2ccccn2)cc1` [BISACODYL], for which the “Bacterial Biotransformation” value in data set [1], in [2], in data set [4], in [5], in data set [6] and in data set [7] was “Compound metabolized” each time. For the same compound, the “Bacterial Biotransformation” value in data set [9] is reported as “Compound metabolized”.

For the compound `CNCC[C@H](Oc1cccc2ccccc12)c1cccs1` [DULOXETINE], the “Bacterial Biotransformation” value in data set [1] is “Compound NOT metabolized”; in [4], “Compound metabolized”; in data set [5] it was “Compound NOT metabolized”; in [6], “Compound NOT metabolized”; in data set [7] it was “Compound metabolized”; in [9], “Compound NOT metabolized”.

As for `CC1=C(CC(=O)O)c2cc(F)ccc2/C1=C\c1ccc([S+](C)[O-])cc1` (configuration not stated), the “Bacterial Biotransformation” value is listed as “Compound metabolized” in data set [1]; “Compound NOT metabolized” in data set [2]; “Compound NOT metabolized” in [3]; “Compound metabolized” in data set [5]; “Compound metabolized” in data set [6]; “Compound metabolized” in [7]. The “Bacterial Biotransformation” value in [8] and in data set [9] was “Compound metabolized” throughout.

Consider `CCCCC(=O)O[C@]1(C(=O)CO)[C@@H](C)C[C@H]2[C@@H]3CCC4=CC(=O)C=C[C@]4(C)[C@@]3(F)[C@@H](O)C[C@@]21C` [BETAMETHASONE VALERATE], for which the “Bacterial Biotransformation” value is “Compound NOT metabolized” in data set [1]; “Compound metabolized” in data set [4]; “Compound NOT metabolized” in data set [5]; “Compound metabolized” in [6]; “Compound metabolized” in [7]; “Compound metabolized” in data set [9].

For the compound `CNNCc1ccc(C(=O)NC(C)C)cc1` [PROCARBAZINE], the “Bacterial Biotransformation” value in data set [1] is reported as “Compound NOT metabolized”; in data set [2], “Compound NOT metabolized”; in data set [4] it was “Compound metabolized”; in data set [5] it was “Compound NOT metabolized”; in data set [7] it was “Compound metabolized”; in data set [8] it was “Compound NOT metabolized”.
